Test results taken from US20230271950A1, “ANTIBACTERIAL PICOLINAMIDE COMPOUNDS” (University of Notre Dame Du Lac, priority 2020, published 2023).
Where two headings read alike, the source gives them in different places.

Test system: C. difficile
Test: MIC by broth microdilution against C. difficile strains
Assay type: cell-based, Clostridioides difficile

Measured: MIC

O=C(O)c1ccc2oc(NC(=O)c3cc(Oc4cccc(OC(F)(F)F)c4)ccn3)nc2c1 [Compound 1, Sodium 2-(4-(3-(trifluoromethoxy)phenoxy)picolinamido)benzo[d]oxazole-5-carboxylate]
0.12 µg/mL: Clostridioides difficile, ATCC43255, C. difficile ATCC 43255, read-out: MIC against C. difficile
0.125 µg/mL: C. difficile 23691 (VR, vancomycin-resistant), Table 7 | C. difficile 23691, Table 9 | C. difficile 24923 (VR, vancomycin-resistant), Table 7 | C. difficile 24923, Table 9 | C. difficile 27081 (FR, fidaxomicin-resistant), Table 7 | C. difficile 27081, Table 9 | C. difficile 27173 (MR, metronidazole-resistant), Table 7 | C. difficile 27173, Table 9 | C. difficile ATCC43255, Table 7 | C. difficile ATCC43255, Table 9 | C. difficile ATCC43598, Table 9 | C. difficile BAA-1801, Table 9 | C. difficile BAA-1804, Table 9 | C. difficile BAA-1812, Table 9 | C. difficile BAA-1814, Table 9 | C. difficile BAA-1870, Table 7 | C. difficile BAA-1870, Table 9 | C. difficile HM-89, Table 9 | C. difficile HM-745, Table 9 | C. difficile HM-746, Table 9 | C. difficile HM-747, Table 9 | C. difficile NR49292, Table 7 | C. difficile NR49292, Table 9 | C. difficile NR49310, Table 7 | C. difficile NR49310, Table 9 | C. difficile NR-13427, Table 9 | C. difficile NR-13428, Table 9 | C. difficile NR-13430, Table 9 | C. difficile NR-13434, Table 9 | C. difficile NR-13435, Table 9 | C. difficile NR-13436, Table 9 | C. difficile NR-13437, Table 9 | C. difficile NR-13438, Table 9 | C. difficile NR-13553, Table 9 | C. difficile NR-32882, Table 9 | C. difficile NR-32883, Table 9 | C. difficile NR-32884, Table 9 | C. difficile NR-32886, Table 9 | C. difficile NR-32887, Table 9 | C. difficile NR-32888, Table 9 | C. difficile NR-32889, Table 9 | C. difficile NR-32892, Table 9 | C. difficile NR-32897, Table 9 | C. difficile NR-32900, Table 9 | C. difficile NR-32904, Table 9 | C. difficile NR-49277, Table 9 | C. difficile NR-49278, Table 9 | C. difficile NR-49279, Table 9 | C. difficile NR-49280, Table 9 | C. difficile NR-49282, Table 9 | C. difficile NR-49286, Table 9 | C. difficile NR-49288, Table 9 | C. difficile NR-49290, Table 9 | C. difficile NR-49291, Table 9 | C. difficile NR-49293, Table 9 | C. difficile NR-49295, Table 9 | C. difficile NR-49296, Table 9 | C. difficile NR-49299, Table 9 | C. difficile NR-49300, Table 9 | C. difficile NR-49301, Table 9 | C. difficile NR-49303, Table 9 | C. difficile NR-49307, Table 9 | C. difficile NR-49308, Table 9 | C. difficile NR-49309, Table 9 | C. difficile NR-49312, Table 9 | C. difficile NR-49314, Table 9 | C. difficile NR-49315, Table 9 | C. difficile NR-49316, Table 9 | C. difficile NR-49317, Table 9 | C. difficile NR-49319, Table 9 | C. difficile NR-49320, Table 9 | C. difficile NR-49323, Table 9 | C. difficile NR-49324, Table 9 | C. difficile NR-49325, Table 9 | C. difficile NR-49326, Table 9 | C. difficile NR-49329, Table 9 | C. difficile, Table 8 | Clostridioides difficile | Clostridioides difficile, ATCC43255
